Experimental data: paper PMC10105652, “Resistance to ceftazidime-avibactam in a KPC-2–producing Klebsiella pneumoniae caused by the extended-spectrum beta-lactamase VEB-25” (European Journal of Clinical Microbiology & Infectious …, 2023)
Like-named read-outs stand apart in the source and are kept apart here.

Molecular target: T1, VEB-1 (Escherichia coli, UniProt Q7BVU7)
T1 construct: gene blaVEB; natural allele amplified and cloned in pCR-Blunt II-TOPO, E. coli Top10; crude extract
Assay: cephalothin hydrolysis, UV […] nm, crude extract
Format: biochemical
Conditions: 100 µM cephalothin, 100 mM sodium phosphate pH 7.0, 3 min preincubation

**Q.** `NC(=O)[C@@H]1CC[C@@H]2CN1C(=O)N2OS(=O)(=O)O` [avibactam] was tested. Which IC50 (read-out: AVI) did it give?
**A.** Its IC50 is 900 nM.

**Q.** Which IC50 (read-out: CLA) does the source give for `O=C(O)[C@H]1/C(=C/CO)O[C@@H]2CC(=O)N21` [clavulanic acid] here?
**A.** Its IC50 is 50 nM.

**Q.** How did the IC50 (read-out: REL) turn out when `O=C(NC1CCNCC1)[C@@H]1CC[C@@H]2CN1C(=O)N2OS(=O)(=O)O` [relebactam] was run?
**A.** The IC50 was 2400 nM.

**Q.** How did the IC50 (read-out: CLA) turn out when `C[C@]1(Cn2ccnn2)[C@H](C(=O)O)N2C(=O)C[C@H]2S1(=O)=O` [tazobactam] was run?
**A.** The IC50 was 50 nM.

**Q.** For `O=C(O)C[C@@H]1CC[C@H](NC(=O)Cc2cccs2)B(O)O1` [vaborbactam], which IC50 (read-out: VAB) is on record?
**A.** The IC50 was 1100 nM.
